The target of experiment [1] is Peroxisome proliferator-activated receptor gamma/Nuclear receptor coactivator 3 (Homo sapiens, UniProt P37231). Briefly: TR-FRET dose response biochemical High Throughput Screening assay for agonists of the steroid receptor coactivator 3 (SRC-3) recruitment by the peroxisome proliferator-activated receptor gamma (PPAR gamma): non-selective agonists. [Related pubchem assays: 1301 (Confirmation screen.), 1048 (Primary screen.)]. The class given is functional. On the technique in general: Time-resolved FRET reads energy transfer from a long-lived donor to a nearby acceptor.

Experiment [2] addresses Peroxisome proliferator-activated receptor gamma/Nuclear receptor coactivator 2 (Homo sapiens, UniProt P37231). Briefly: TR-FRET dose response biochemical High Throughput Screening assay for agonists of the steroid receptor coactivator 2 (SRC-2) recruitment by the peroxisome proliferator-activated receptor gamma (PPAR gamma): non-selective agonists. [Related pubchem assays: 1297, 1032 ]. In kind it is functional.

Experiment [3] has as its target Peroxisome proliferator-activated receptor gamma/Nuclear receptor coactivator 1 (Homo sapiens, UniProt P37231). Briefly: TR-FRET dose response biochemical High Throughput Screening assay for agonists of the steroid receptor coactivator 1 (SRC-1) recruitment by the peroxisome proliferator-activated receptor gamma (PPAR gamma): non-selective agonists. [Related pubchem assays (depositor defined):AID1300, AID1808, AID504735, AID631]. The class given is protein assay.

For a further experiment, the target named is Cytochrome P450 2C9 (Homo sapiens, UniProt P11712).
The next experiment addresses Cytochrome P450 3A4 (Homo sapiens, UniProt P08684).
In another experiment the test system is Escherichia coli. The experiment can be described thus: microbe, parasite or virus in culture.
The target of experiment [4] is Dual specificity tyrosine-phosphorylation-regulated kinase 1A (Rattus norvegicus, UniProt Q63470). In kind it is biochemical, Homo sapiens.
The target in another experiment is T1, Cysteine protease ATG4B (Homo sapiens, UniProt Q9Y4P1).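 Further: Fluorescence-based dose-response confirmation assay measuring inhibition of ATG4B activity.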
T1 sequence (Q9Y4P1 whole entry): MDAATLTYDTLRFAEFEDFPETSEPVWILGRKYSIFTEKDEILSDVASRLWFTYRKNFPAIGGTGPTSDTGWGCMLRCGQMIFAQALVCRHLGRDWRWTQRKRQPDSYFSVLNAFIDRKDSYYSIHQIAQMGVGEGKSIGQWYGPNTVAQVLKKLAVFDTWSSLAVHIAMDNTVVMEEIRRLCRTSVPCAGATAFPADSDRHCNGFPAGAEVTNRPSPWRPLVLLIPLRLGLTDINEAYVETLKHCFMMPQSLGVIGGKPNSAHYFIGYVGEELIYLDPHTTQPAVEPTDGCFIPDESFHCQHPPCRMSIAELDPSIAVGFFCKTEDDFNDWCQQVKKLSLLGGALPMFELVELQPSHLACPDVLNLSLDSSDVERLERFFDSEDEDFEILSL
The class given is functional.

A further experiment concerns the target Phospholipase A2 (Homo sapiens, UniProt P04054). The class given is functional.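 Further: confirmatory dose-response counterscreen on phospholipase A2, testing hits that came from an ultra-high-throughput screen for ATG4B inhibitors.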
In experiment [5] the test system is HEK293. The experiment can be described thus: cells. In kind it is functional, cell-based. To be noted: Homo sapiens.
The subject of experiment [6] is HEK293. The experiment can be described thus: cells. In kind it is functional, cell-based. To be noted: Homo sapiens. The source holds these as a separate data set.
The subject of experiment [7] is HEK293. Briefly: NOD2 signaling inhibitors in MDP-stimulated cells, cell-based, uHTS, luminescence (AID 2001). In kind it is functional. To be noted: Homo sapiens.
The target in the next experiment is Genome polyprotein (dengue virus type 2, UniProt P29990). The experiment can be described thus: Dengue-2 NS5 methyltransferase inhibitors, primary screen, biochemical, confirmation dose response (AID 588689). In kind it is functional.
Experiment [8] has as its system HEK293. Briefly: NOD1 signaling inhibitors, primary screen, cell-based, luminescence, uHTS (AID 1578). The class given is functional. To be noted: Homo sapiens.
For experiment [9], the target named is Induced myeloid leukemia cell differentiation protein Mcl-1 (Homo sapiens, UniProt Q07820). The class given is functional.
Experiment [10] addresses FAD-linked sulfhydryl oxidase ALR (Homo sapiens, UniProt P55789). The experiment can be described thus: inhibitors of human ALR sulfhydryl oxidase, dose response, biochemical, H2O2 detection, luminescence, cherry-pick (AID 493248).
Experiment [11] has as its target 26S proteasome non-ATPase regulatory subunit 14 (Homo sapiens, UniProt O00487). The experiment can be described thus: inhibition of proteasome subunit RPN11 – biochemical, fluorescence polarization, uHTS hits, confirmation (AID 602368). In kind it is functional. Background: Polarisation of emitted light reports the rotation of a fluorescent probe.
The next experiment concerns the target Prothrombin (Bos taurus, UniProt P00735). The experiment can be described thus: thrombin inhibition, dose response, biochemical, fluorescence polarization, uHTS hits (AID 602369). In kind it is functional.
In experiment [12] the target is 72 kDa type IV collagenase (Homo sapiens, UniProt P08253). Briefly: Dose Response validation of uHTS RPN11 inhibitor hits using a MMP-2 Fluorescence assay. The class given is functional.
Experiment [13] concerns the target T2, Polyadenylate-binding protein 1 (Homo sapiens, UniProt P11940). Briefly: PABP1 MLLE–PAM2 interaction inhibitors, dose response, miRNA deadenylation inhibitor project, biochemical, fluorescence polarization, Cy5-PAM2 peptide, secondary (AID 602260). The class given is functional. To be noted: read-out: IC50_Mean.
In experiment [14] the target is T2, Polyadenylate-binding protein 1. The experiment can be described thus: PABP1 MLLE–PAM2 binding inhibitor potency, dose response, biochemical, fluorescence polarization, FITC-PAM2 peptide (AID 602259). The class given is functional. The conditions noted are these: read-out: IC50_Mean.

Here are results for 14 compounds from ChEMBL document CHEMBL1201862, “PubChem BioAssay data set” (2004).

Usually EC50 stands for the concentration at which the effect is half-maximal. Broadly, the AC50 is the midpoint of the concentration-response curve, whichever way the signal moves.

Active and inactive are the calls of the source.

Chain of Peroxisome proliferator-activated receptor gamma/Nuclear receptor coactivator 1 (P37231 whole entry): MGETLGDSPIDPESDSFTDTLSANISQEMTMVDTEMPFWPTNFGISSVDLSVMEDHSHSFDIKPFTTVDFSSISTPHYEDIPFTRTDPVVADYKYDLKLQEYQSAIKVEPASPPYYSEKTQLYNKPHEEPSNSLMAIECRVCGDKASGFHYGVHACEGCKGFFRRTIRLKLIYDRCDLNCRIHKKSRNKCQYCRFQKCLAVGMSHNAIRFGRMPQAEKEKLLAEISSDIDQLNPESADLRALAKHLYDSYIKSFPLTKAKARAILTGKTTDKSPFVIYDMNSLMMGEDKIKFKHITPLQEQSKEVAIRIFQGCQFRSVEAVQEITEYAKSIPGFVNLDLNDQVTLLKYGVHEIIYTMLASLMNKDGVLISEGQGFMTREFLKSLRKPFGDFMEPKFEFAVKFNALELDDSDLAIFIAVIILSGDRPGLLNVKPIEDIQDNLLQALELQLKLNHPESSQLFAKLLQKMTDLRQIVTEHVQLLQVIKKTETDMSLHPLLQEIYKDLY
Chain of Peroxisome proliferator-activated receptor gamma/Nuclear receptor coactivator 1 (Q15788 whole entry, further chain): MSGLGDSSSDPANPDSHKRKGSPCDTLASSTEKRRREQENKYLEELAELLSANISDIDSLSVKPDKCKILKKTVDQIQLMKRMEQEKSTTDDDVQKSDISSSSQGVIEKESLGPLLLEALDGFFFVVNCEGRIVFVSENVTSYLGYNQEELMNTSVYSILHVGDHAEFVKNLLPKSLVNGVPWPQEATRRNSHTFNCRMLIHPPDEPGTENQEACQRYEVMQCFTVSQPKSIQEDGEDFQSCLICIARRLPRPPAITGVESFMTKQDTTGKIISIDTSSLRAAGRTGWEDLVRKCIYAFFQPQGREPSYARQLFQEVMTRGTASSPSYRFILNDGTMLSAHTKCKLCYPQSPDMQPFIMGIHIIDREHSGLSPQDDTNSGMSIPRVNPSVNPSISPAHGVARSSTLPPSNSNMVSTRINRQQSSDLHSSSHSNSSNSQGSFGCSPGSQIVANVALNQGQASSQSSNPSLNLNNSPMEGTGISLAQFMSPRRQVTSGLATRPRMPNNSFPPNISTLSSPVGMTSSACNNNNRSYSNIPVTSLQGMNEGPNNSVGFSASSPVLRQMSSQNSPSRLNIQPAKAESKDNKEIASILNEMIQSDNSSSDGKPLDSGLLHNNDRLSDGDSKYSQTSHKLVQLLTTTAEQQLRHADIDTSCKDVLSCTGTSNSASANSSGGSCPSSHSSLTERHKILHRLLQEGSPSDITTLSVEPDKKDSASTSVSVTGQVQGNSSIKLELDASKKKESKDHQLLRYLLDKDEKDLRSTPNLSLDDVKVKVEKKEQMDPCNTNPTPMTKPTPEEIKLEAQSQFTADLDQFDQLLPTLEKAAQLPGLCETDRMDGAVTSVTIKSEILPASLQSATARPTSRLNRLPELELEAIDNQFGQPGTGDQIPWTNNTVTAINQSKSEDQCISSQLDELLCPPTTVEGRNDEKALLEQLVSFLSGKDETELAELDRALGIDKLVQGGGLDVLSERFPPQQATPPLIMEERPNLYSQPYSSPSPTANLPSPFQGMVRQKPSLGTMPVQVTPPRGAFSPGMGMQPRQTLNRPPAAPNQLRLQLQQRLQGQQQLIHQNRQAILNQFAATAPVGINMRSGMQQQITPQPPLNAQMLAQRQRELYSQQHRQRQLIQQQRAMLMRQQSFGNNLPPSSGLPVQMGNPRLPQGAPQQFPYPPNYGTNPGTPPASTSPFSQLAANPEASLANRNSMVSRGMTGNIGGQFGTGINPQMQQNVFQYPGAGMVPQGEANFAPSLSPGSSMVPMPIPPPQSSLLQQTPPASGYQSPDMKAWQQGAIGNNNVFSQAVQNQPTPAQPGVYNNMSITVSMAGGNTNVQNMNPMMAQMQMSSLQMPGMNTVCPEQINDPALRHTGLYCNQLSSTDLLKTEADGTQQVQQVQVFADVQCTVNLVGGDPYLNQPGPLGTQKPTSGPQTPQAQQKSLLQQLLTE
Chain of Peroxisome proliferator-activated receptor gamma/Nuclear receptor coactivator 3 (P37231 whole entry): as the sequence (P37231 whole entry) above
Chain of Peroxisome proliferator-activated receptor gamma/Nuclear receptor coactivator 3 (Q9Y6Q9 whole entry, further chain): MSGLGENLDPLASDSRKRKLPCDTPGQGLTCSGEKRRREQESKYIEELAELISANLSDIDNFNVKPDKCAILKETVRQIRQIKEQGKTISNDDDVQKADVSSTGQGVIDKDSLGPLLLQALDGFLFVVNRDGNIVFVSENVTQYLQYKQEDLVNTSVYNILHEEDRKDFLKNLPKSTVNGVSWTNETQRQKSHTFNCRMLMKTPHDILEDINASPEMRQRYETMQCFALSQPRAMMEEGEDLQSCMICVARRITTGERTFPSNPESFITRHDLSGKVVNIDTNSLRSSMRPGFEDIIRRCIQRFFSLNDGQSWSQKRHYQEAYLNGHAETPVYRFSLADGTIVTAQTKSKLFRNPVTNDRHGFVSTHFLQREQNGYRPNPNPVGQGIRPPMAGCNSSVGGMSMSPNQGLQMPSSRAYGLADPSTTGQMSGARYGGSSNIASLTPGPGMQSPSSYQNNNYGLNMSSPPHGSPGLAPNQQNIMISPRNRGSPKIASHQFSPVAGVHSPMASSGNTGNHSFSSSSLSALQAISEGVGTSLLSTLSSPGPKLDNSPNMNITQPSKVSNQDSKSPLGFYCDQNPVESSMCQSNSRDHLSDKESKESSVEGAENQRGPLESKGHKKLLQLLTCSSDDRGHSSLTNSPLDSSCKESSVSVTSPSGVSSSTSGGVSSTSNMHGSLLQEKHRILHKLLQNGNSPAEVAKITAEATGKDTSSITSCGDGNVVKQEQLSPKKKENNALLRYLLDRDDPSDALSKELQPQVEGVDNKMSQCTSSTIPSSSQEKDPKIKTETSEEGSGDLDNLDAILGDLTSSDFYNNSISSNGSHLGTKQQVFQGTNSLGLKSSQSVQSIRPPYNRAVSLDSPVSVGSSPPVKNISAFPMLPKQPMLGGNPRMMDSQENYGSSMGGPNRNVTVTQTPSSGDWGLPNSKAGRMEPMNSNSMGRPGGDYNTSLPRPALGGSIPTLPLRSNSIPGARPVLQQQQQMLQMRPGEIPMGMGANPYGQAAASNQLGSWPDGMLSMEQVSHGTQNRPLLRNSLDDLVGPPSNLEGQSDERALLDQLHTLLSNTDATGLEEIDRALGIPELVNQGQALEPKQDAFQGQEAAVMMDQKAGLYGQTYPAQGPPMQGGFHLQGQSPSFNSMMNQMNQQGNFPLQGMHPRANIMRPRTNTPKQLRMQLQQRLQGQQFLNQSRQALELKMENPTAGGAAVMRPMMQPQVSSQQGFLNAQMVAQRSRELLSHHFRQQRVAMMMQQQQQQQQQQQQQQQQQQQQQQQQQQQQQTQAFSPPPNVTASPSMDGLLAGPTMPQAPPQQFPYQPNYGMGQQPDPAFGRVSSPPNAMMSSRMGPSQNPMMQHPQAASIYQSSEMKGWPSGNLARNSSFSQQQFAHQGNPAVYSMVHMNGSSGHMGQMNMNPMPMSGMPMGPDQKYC
Chain of Genome polyprotein (P29990 2492-3391 limits assumed): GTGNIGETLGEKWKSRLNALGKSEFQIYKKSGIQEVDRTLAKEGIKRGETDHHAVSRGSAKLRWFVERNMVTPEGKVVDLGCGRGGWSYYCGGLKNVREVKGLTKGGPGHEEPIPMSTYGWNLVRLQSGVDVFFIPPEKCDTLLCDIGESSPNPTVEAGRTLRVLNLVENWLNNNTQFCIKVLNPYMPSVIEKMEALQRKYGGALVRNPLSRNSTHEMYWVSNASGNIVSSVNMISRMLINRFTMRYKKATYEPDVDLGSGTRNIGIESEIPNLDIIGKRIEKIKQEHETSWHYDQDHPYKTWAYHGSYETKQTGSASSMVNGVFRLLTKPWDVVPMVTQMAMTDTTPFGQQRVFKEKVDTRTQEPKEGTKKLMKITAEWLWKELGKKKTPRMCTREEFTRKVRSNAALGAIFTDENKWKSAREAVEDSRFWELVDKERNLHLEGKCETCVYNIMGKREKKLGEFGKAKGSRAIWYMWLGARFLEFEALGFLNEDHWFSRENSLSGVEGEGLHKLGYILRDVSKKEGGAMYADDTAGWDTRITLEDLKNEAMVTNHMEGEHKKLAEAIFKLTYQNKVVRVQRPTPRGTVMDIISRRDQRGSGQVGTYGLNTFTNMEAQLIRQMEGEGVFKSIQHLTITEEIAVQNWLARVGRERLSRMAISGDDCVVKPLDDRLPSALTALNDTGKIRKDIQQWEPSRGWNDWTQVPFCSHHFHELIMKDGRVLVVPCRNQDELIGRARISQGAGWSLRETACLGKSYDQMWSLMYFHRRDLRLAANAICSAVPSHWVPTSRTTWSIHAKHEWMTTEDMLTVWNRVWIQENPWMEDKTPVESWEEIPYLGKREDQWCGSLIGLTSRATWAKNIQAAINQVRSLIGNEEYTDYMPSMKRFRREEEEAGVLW
Chain of Phospholipase A2 (P04054 whole entry): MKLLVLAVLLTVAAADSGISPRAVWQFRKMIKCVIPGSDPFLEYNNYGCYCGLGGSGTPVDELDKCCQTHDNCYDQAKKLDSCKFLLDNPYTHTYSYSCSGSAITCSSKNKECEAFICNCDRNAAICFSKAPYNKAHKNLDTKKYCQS

As to `N#Cc1c(-c2ccccc2)cc(C2CC2)nc1SCC(=O)c1cccs1`, the values for the EC50 in experiment [1], in experiment [2] and in [3] were 20.6 µM (not active), 7.18 µM (active) and 7.51 µM (active), respectively. The AC50 on Cytochrome P450 2C9 is 0.0447 µM (inconclusive); at Cytochrome P450 3A4 it was 14.1 µM (inconclusive).

As to `Cc1ccc(C)c(NC(=O)CCN2CCc3ccccc3C2)c1`, the AC50 with Escherichia coli is 58.7 µM (active).

For the compound `CC(=O)Nc1cccc(NC(=O)c2cc3ccccc3o2)c1`, the AC50 in [4] is 11.5 µM (active).

For `C[N+](C)(CCOc1ccccc1)Cc1ccccc1.O=C([O-])c1cc2ccccc2c(Br)c1O`, the AC50 in experiment [4] is 0.517 µM (active).

Consider `COc1ccc(/C=C/C(=O)OCc2cc(=O)n3c(n2)sc2ccccc23)cc1`, for which the AC50 in the experiment with Escherichia coli is > 150 µM (inactive).

Regarding `Cc1ccccc1S(=O)(=O)Nc1nc2ccccc2nc1N1CCc2ccccc2C1`, the figures for the IC50 at Cysteine protease ATG4B and on Phospholipase A2 were 29.9 µM (inactive) and 16.8 µM (active), respectively.

Take `CC(/C=C1\SC(=S)N(c2ccc(C(=O)O)cc2)C1=O)=C\c1ccccc1`: the IC50 is > 20 µM (inactive) with HEK293 [5]; 4.09 µM (active) in the experiment with HEK293 [6]; 5.93 µM (active) in the experiment with HEK293 [7]; 33.7 µM (active) on Genome polyprotein; 3.09 µM (active) in [9]; 5.25 µM (active) on Cysteine protease ATG4B. Also, the IC50 on Phospholipase A2 is 1.88 µM (active). For the same compound, the EC50 with HEK293 [8] is 8.26 µM (active).

`O=C(NCc1ccccc1)c1[nH]cnc1C(=O)N1CCN(c2ccccc2)CC1`: the figures for the AC50 (in [10]; in the experiment on Escherichia coli) were 6.21 µM (active) and 38.8 µM (active), respectively.

In the case of `Cc1ccc(C(=O)N2CC2C)cc1` (stereo unspecified), the AC50 in the experiment with Escherichia coli was 25.4 µM (active).

As to `O=C(CCN1C(=O)NC2(CCCC2)C1=O)Nc1ccc(-c2nc3ccccc3s2)cc1`, the results for the IC50 (in experiment [11]; at Prothrombin; in [12]) were 19.3 µM (active), 19.5 µM (active) and > 100 µM (inactive), respectively.

Consider `COC(=O)C1=C(C(=O)OC)C(c2cc(Br)ccc2O)c2sc(O)nc2S1` (stereo unspecified), for which the values for the IC50 (in experiment [13]; in [14]; on Genome polyprotein) were > 66 µM (inactive), > 66 µM (inactive) and 81.6 µM (active), respectively. In addition, the AC50 in experiment [4] is 24.6 µM (active).

For the compound `CCc1nc(/C=C2\C(=O)Nc3ccccc32)c[nH]1`, the AC50 in experiment [4] is 10.5 µM (active).

`Cn1c(S)nnc1-c1sc2cc(C(F)(F)F)cnc2c1-c1cccs1`: the EC50 was 34 µM (not active) in experiment [1], 12.6 µM (not active) in [2] and 6.65 µM (active) in [3].

`CN(CCCNC(=O)CSc1cc(=O)n(C)c2ccc(Cl)cc12)Cc1ccccc1`: the EC50 in [1] is > 79.4 µM (not active); in experiment [2] it was > 79.4 µM (not active); in [3] it was > 79.4 µM (inactive).
